Laboratory results reported in patent publication US5861300A, “Antiviral transgenic plants, vectors, cells and methods” (The Cleveland Clinic Foundation, priority 1995, dated 1999).

Experiments:
[1] = tested on: murine 2-5A-dependent RNase (truncated recombinant clone ZB1 and naturally occurring L929 cell enzyme); assay: uv covalent crosslinking of 2-5A probe with unlabeled oligonucleotide competitors; format: binding; conditions: for competition with 2-5A probe for binding to protein: competitor 100 nM, recombinant 74 kDa protein in wheat germ extract, similar profile with L929 cell enzyme; for concentration required to prevent 2-5A probe binding: both proteins (recombinant ZB1 and naturally occurring)
Method: (§1) The synthesis of the 2-5A probe, p(A2'p)2 (br^8 A2'p)2 A[32P]Cp, and its crosslinking to 2-5A-dependent RNase is performed exactly as described. See Nolan-Sorden, N. L. et al., Anal. Biochem., 184:298-304 (1990). Briefly, the 2-5A probe, about 0.7 to 2.5 nM at […], is incubated for about one hour on ice with cell extract prepared as described, Silverman, R. H. and Krause, D., I.R.L. Press, Oxford, England, pp. 149-193 (1987), in the absence or presence of unlabeled oligonucleotide competitors. Covalent crosslinking is done under a uv lamp (308 nm) for one hour on ice and the proteins are separated on SDS/10% polyacrylamide gels. Filter assays for 2-5A binding activity using the 2-5A probe for about one hour on ice, as described in Knight, M. et al., Nature, 288:189-192 (1980).

[2] = tested on: human 2-5A-dependent RNase (recombinant and HeLa cell); assay: as above; format: binding; conditions: competitor 100 nM; recombinant human enzyme in wheat germ extract; same pattern in HeLa cell extract
Method: as §1

poly(C) = assay: ribonuclease assay with 2-5A-cellulose; format: biochemical; conditions: after one hour of incubation; enzyme bound to 2-5A-cellulose
Method: (§2) Transcription of plasmids with phage RNA polymerases is in the presence of mGppppG as described (Promega) except that reaction mixtures are supplemented with 15% dimethyl sulfoxide and incubations are at about 37° C. for about 90 minutes. RNA is purified through Sephadex G50 spun-columns and ethanol precipitated prior to translation. Protein synthesis was performed, as described (Promega), at about 30° C. for about one hour in micrococcal nuclease-pretreated rabbit reticulocyte lysate or in an extract of wheat germ at about room temperature for about one hour and then at about […] for about 12 hours. Translation reactions contain about 50 μM zinc sulfate. […]
(§3) The ribonuclease assay with 2-5A-cellulose is performed, as described by Silverman, R. H., Anal. Biochem., 144:450-460 (1985). […] The matrix is then incubated with poly(U)-[^32 P]Cp or poly(C)-[^32 P]Cp (both at about 16 μM in nucleotide equivalents) at about 30° C. and the levels of acid-precipitable radioactive RNA are determined by filtration on glass-fiber filters.

poly(U) = assay: ribonuclease assay with 2-5A-cellulose; format: biochemical; conditions: enzyme made in reticulocyte lysate, bound to 2-5A-cellulose, 30° C.
Method: as §2, §3

2-5A probe = assay: 2-5A binding activity of nested 3'-deletion clones (filter binding and uv crosslinking); conditions: expressed in wheat germ extract
Method: The set of nested 3'-deletions of the truncated murine 2-5A-dependent RNase cDNA, ZB1, is generated with exonuclease III/S1 nuclease digestion followed by filling-in with Klenow DNA Polymerase using the "Erase-A-Base"system (Promega).
as §1

32P-2-5A probe = assay: 2-5A binding of lysine to asparagine mutants, uv crosslinking, phosphorimager analysis; conditions: wheat germ translation products; phosphorimager analysis of dried gel
Method: Briefly, the 2-5A probe, about 0.7 to 2.5 nM at 3,0009 Ci/mmole, is incubated for about one hour on ice with cell extract prepared as described, Silverman, R. H. and Krause, D., I.R.L. Press, Oxford, England, pp. 149-193 (1987), in the absence or presence of unlabeled oligonucleotide competitors. Covalent crosslinking is done under a uv lamp (308 nm) for one hour on ice and the proteins are separated on SDS/10% polyacrylamide gels.
The lysines in the truncated murine 2-5A-dependent RNase, clone ZB1, at positions 240 and 274 are mutated, individually and together, to asparagine residues.

Molecule: (A2'p)2 A
- fold higher concentration than trimer 2-5A required to prevent probe binding ([1]; both proteins): 500 fold
- competition with 2-5A probe for binding to protein [1]: fails to interfere with binding
- concentration required to prevent 2-5A probe binding ([1]; probe 2.4 nM): 10 µM
- competition with 2-5A probe for binding to protein [2]: not prevented

Molecule: p3 (A2'p)2 A
- competition with 2-5A probe for binding to protein [1]: completely prevents probe binding
- concentration that prevents the 2-5A probe from binding ([1]; probe 2.4 nM, either protein (recombinant ZB1 and naturally occurring)): about 20 nM
- competition with 2-5A probe for binding to protein [2]: effectively competes

Molecule: p3 A2'pA
- concentration required to prevent 2-5A probe binding ([1]; probe 2.4 nM): > 10 µM

Molecule: p3 I2'pA2'pA
- concentration required to prevent 2-5A probe binding ([1]; probe 2.4 nM): about 1.0 μM

B1: recombinant human 2-5A-dependent RNase: full-length human 2-5A-dependent RNase translated in vitro in reticulocyte lysate (protein, UniProt Q05823 1-741, looked up)
chain: MESRDHNNPQEGPTSSSGRRAAVEDNHLLIKAVQNEDVDLVQQLLEGGANVNFQEEEGGWTPLHNAVQMSREDIVELLLRHGADPVLRKKNGATPFILAAIAGSVKLLKLFLSKGADVNECDFYGFTAFMEAAVYGKVKALKFLYKRGANVNLRRKTKEDQERLRKGGATALMDAAEKGHVEVLKILLDEMGADVNACDNMGRNALIHALLSSDDSDVEAITHLLLDHGADVNVRGERGKTPLILAVEKKHLGLVQRLLEQEHIEINDTDSDGKTALLLAVELKLKKIAELLCKRGASTDCGDLVMTARRNYDHSLVKVLLSHGAKEDFHPPAEDWKPQSSHWGAALKDLHRIYRPMIGKLKFFIDEKYKIADTSEGGIYLGFYEKQEVAVKTFCEGSPRAQREVSCLQSSRENSHLVTFYGSESHRGHLFVCVTLCEQTLEACLDVHRGEDVENEEDEFARNVLSSIFKAVQELHLSCGYTHQDLQPQNILIDSKKAAHLADFDKSIKWAGDPQEVKRDLEDLGRLVLYVVKKGSISFEDLKAQSNEEVVQLSPDEETKDLIHRLFHPGEHVRDCLSDLLGHPFFWTWESRYRTLRNVGNESDIKTRKSESEILRLLQPGPSEHSKSFDKWTTKINECVMKKMNKFYEKRGNFYQNTVGDLLKFIRNLGEHIDEEKHKKMKLKIGDPSLYFQKTFPDLVIYVYTKLQNTEYRKHFPQTHSPNKPQCDGAGGASGLASPGC
modifications: full-length
notes: full-length human 2-5A-dependent RNase translated in vitro in reticulocyte lysate
- poly(C) degraded (poly(C)): 20%
- half-life of poly(U) degradation (poly(U)): about 10 minutes

B2: ZB11: murine 2-5A-dependent RNase deletion mutant, amino acid residues 1 to 342 (protein, UniProt Q05921 1-342, looked up, fragment)
chain: METPDYNTPQGGTPSAGSQRTVVEDDSSLIKAVQKGDVVRVQQLLEKGADANACEDTWGWTPLHNAVQAGRVDIVNLLLSHGADPHRRKKNGATPFIIAGIQGDVKLLEILLSCGADVNECDENGFTAFMEAAERGNAEALRFLFAKGANVNLRRQTTKDKRRLKQGGATALMSAAEKGHLEVLRILLNDMKAEVDARDNMGRNALIRTLLNWDCENVEEITSILIQHGADVNVRGERGKTPLIAAVERKHTGLVQMLLSREGINIDARDNEGKTALLIAVDKQLKEIVQLLLEKGADKCDDLVWIARRNHDYHLVKLLLPYVANPDTDPPAGDWSPHSSRW
- loss of 2-5A binding activity as compared to clone ZB1 (2-5A probe): about 26%

B3: ZB13: murine 2-5A-dependent RNase deletion mutant, amino acids 1 to 294 (protein, UniProt Q05921 1-294, looked up, fragment)
chain: METPDYNTPQGGTPSAGSQRTVVEDDSSLIKAVQKGDVVRVQQLLEKGADANACEDTWGWTPLHNAVQAGRVDIVNLLLSHGADPHRRKKNGATPFIIAGIQGDVKLLEILLSCGADVNECDENGFTAFMEAAERGNAEALRFLFAKGANVNLRRQTTKDKRRLKQGGATALMSAAEKGHLEVLRILLNDMKAEVDARDNMGRNALIRTLLNWDCENVEEITSILIQHGADVNVRGERGKTPLIAAVERKHTGLVQMLLSREGINIDARDNEGKTALLIAVDKQLKEIVQLLLE
- 2-5A binding activity relative to clone ZB1 (2-5A probe): about 38.3%

B4: ZB14: murine 2-5A-dependent RNase deletion mutant, amino acids 1 to 265, one P-loop motif deleted (protein, UniProt Q05921 1-265, looked up, fragment)
chain: METPDYNTPQGGTPSAGSQRTVVEDDSSLIKAVQKGDVVRVQQLLEKGADANACEDTWGWTPLHNAVQAGRVDIVNLLLSHGADPHRRKKNGATPFIIAGIQGDVKLLEILLSCGADVNECDENGFTAFMEAAERGNAEALRFLFAKGANVNLRRQTTKDKRRLKQGGATALMSAAEKGHLEVLRILLNDMKAEVDARDNMGRNALIRTLLNWDCENVEEITSILIQHGADVNVRGERGKTPLIAAVERKHTGLVQMLLSREGIN
- 2-5A binding activity relative to clone ZB1 (2-5A probe): 1.9%

B5: ZB15: murine 2-5A-dependent RNase deletion mutant, amino acids 1 to 218, both P-loop motifs deleted (protein, UniProt Q05921 1-218, looked up, fragment)
chain: METPDYNTPQGGTPSAGSQRTVVEDDSSLIKAVQKGDVVRVQQLLEKGADANACEDTWGWTPLHNAVQAGRVDIVNLLLSHGADPHRRKKNGATPFIIAGIQGDVKLLEILLSCGADVNECDENGFTAFMEAAERGNAEALRFLFAKGANVNLRRQTTKDKRRLKQGGATALMSAAEKGHLEVLRILLNDMKAEVDARDNMGRNALIRTLLNWDCENV
- 2-5A binding activity relative to clone ZB1 (2-5A probe): completely lacking in 2-5A binding activity

B6: ZB1(Lys^240,274 -)Asn): double mutant of clone ZB1, lysines 240 and 274 replaced by asparagine (protein, UniProt Q05921 1-735, looked up, variant K240N K274N)
2-5A-dependent ribonuclease: METPDYNTPQGGTPSAGSQRTVVEDDSSLIKAVQKGDVVRVQQLLEKGADANACEDTWGWTPLHNAVQAGRVDIVNLLLSHGADPHRRKKNGATPFIIAGIQGDVKLLEILLSCGADVNECDENGFTAFMEAAERGNAEALRFLFAKGANVNLRRQTTKDKRRLKQGGATALMSAAEKGHLEVLRILLNDMKAEVDARDNMGRNALIRTLLNWDCENVEEITSILIQHGADVNVRGERGNTPLIAAVERKHTGLVQMLLSREGINIDARDNEGNTALLIAVDKQLKEIVQLLLEKGADKCDDLVWIARRNHDYHLVKLLLPYVANPDTDPPAGDWSPHSSRWGTALKSLHSMTRPMIGKLKIFIHDDYKIAGTSEGAVYLGIYDNREVAVKVFRENSPRGCKEVSCLRDCGDHSNLVAFYGREDDKGCLYVCVSLCEWTLEEFLRLPREEPVENGEDKFAHSILLSIFEGVQKLHLHGYSHQDLQPQNILIDSKKAVRLADFDQSIRWMGESQMVRRDLEDLGRLVLYVVMKGEIPFETLKTQNDEVLLTMSPDEETKDLIHCLFSPGENVKNCLVDLLGHPFFWTWENRYRTLRNVGNESDIKVRKCKSDLLRLLQHQTLEPPRSFDQWTSKIDKNVMDEMNHFYEKRKKNPYQDTVGDLLKFIRNIGEHINEEKKRGMKEILGDPSRYFQETFPDLVIYIYKKLKETEYRKHFPQPPPRLSVPEAVGPGGIQS
- 2-5A binding activity relative to clone ZB1 (control) (32P-2-5A probe): 12.2%
